From patent publication US10471025B2, “Compositions for use in treating parkinson's disease and related disorders” (Technophage, Investigação E Desenvolvimento Em …, priority 2015, dated 2019)
“Also recorded” adds a separate entry of the source. Counter-ions that a name gives are not always drawn. Like-named read-outs stand apart in the source and are kept apart here.

What was measured:
[1] = system: 6-OHDA treated zebrafish larvae; assay: Locomotor behavior rescue (total distance moved, number of jumps) in 6-OHDA zebrafish PD model; type: in vivo
From the text: To model Parkinson ̆s disease (PD), a neurotoxin 6-OHDA (6-hyroxydopamine) based method was used in zebrafish and in mice. In this model, 6-OHDA-lesions induce motor manifestations in zebrafish and in mice, such as reduced locomotor ability, and the loss of dopaminergic neurons. Based on the 6-OHDA PD zebrafish model, compounds from a small molecules library were screened for rescue of the parkinsonian phenotype (Example 1, see below).
The screen was based on both the recovery of impaired locomotor behavior and dopaminergic neuronal loss.
Values were normalized for the mean of disease state in each experiment (disease=1). Each plot contains data from 3 independent experiments with a total of 24 larvae. As a control, zebrafish were treated with only the vehicle, ascorbic acid.
For these experiments, Tubingen (TU) wild-type zebrafish, a specific strain of wild-type zebrafish, were used.

[2] = system: 6-OHDA treated zebrafish larvae; assay: Co-administration with L-Dopa, total distance 6-OHDA larvae move; type: in vivo; details: hydrochloride; for Effect of co-administration with L-Dopa on locomotor recovery: total distance, L-Dopa 250 or 125 μM
6-OHDA mouse model [3] = assay: Abnormal involuntary movements (AIMs), 6-OHDA mice, ON/OFF L-Dopa study (Example 7)
Description: The unilateral striatal 6-OHDA mice model was used in this study. Specifically, 12 week old CD-1 male mice received an injection of 6-OHDA neurotoxin at the following coordinates: AP +0.9 mm, ML +2.0 mm, DV −3.2 mm, as in the Example outlined above. Animals were injected with 10 ? g of 6-OHDA or ascorbic acid (vehicle control) to induce the disease. Disease was induced for 7 days and treatment then was initiated at this time point.
The following parameters were evaluated: hyperkinetic and/or dystonic movements of the contralateral forelimb on the sagittal or frontal plane (forelimb involuntary movements; FIG. 29A), twisted posture of the neck and upper body towards the side contralateral to the lesion (upper body involuntary movements; FIG. 29B), twitching of orofacial muscles, empty jaw movements and contralateral tongue protrusion (orofacial involuntary movements; FIG. 29C), circular locomotion with contralateral side bias (circular involuntary movements; FIG. 29D), total involuntary movements (FIG. 29E), and total involuntary movement along the different timepoints (FIG. 29F). […] Total abnormal involuntary movements (FIGS. […]) were the sum of all 4 different involuntary movements evaluated.
The same parameters were analyzed as for 20 days post injection (dpi).

6-OHDA mouse model [4] = type: in vivo; details: for Gait test: maximum velocity, mean velocity, percentage of time resting or moving fast: tapentadol hydrochloride 8 or 15 mg/kg/day, hydrochloride
Description: That is, tapentadol hydrochloride C1 concentration dosage was increased to 8 mg/kg/day and tapentadol hydrochloride C3 concentration dosage was increased to 15 mg/kg/day. The gait test plan is illustrated in FIGS. 24A-24B.
To better observe the movement pattern of mice ̆s limbs, a new device was engineered similar to that used in a beam test, but with a closed corridor and a door. The apparatus was transparent with two home-cages at the extremities, one at the entrance that is transparent and another on the opposite end that is black. Each test was repeated 5 times and the 3 more consistent trials were selected for paw placement analysis. Data was recorded by 3 different cameras: on the bottom, top, and side of the corridor. Each camera allowed measurement of a different gait parameter. Specifically, the bottom camera allowed measurement, through the base of the support, of the hind paw distance and hind paw angle. The top camera allowed measurement of different parameters at distinct zones^—in the green area (most of the length of the apparatus), maximum and mean velocity, percentage of time resting/moving slow/moving fast, and time to the door were measured; the dark blue area provided a lag zone; and in the yellow area (area in front of the door), the permanence time before the door, mean velocity before the door, and latency to cross the door were measured. The side camera was used to analyze mice posture.

mouse = details: cited from earlier work
[5] = IV, rats; cited from earlier work
[6] = system: cytochrome P450 (CY P) isoenzymes; details: cited from earlier work
[7] = system: 6-OHDA treated zebrafish larvae; assay: LD50 / lethality in the disease context of the zebrafish model

SMILES: CC[C@@H](c1cccc(O)c1)[C@@H](C)CN(C)C [tapentadol, tapentadol hydrochloride]
- Therapeutic window ([1]; 6-OHDA zebrafish larvae): 20 to 113 µM
- Locomotor behavior rescue (total distance moved, number of jumps), confirmation of screen ([1]; 7 candidate molecules, 3 independent experiments): strong candidates
- Optimal concentration ([1]; behavioral experiments and TH+ cell counts): 48.5 µM
- Total distance travelled, difference between treated larvae and disease control ([1]; tapentadol 48.5, stavudine 50, nabumetone 0.456 and 0.91 μM, n=8 fish): ~200 mm
- Number of jumps: concentration validated as recovering the 6-OHDA induced behavior ([1]; zebrafish, in vivo): 56.25 µM
- Tapentadol w L-Dopa: effectiveness with L-Dopa 250 relative to 125 ([2]; co-administration with L-Dopa 250 vs 125, listed as Tapentadol HCl): less and equally
- Effect of co-administration with L-Dopa on locomotor recovery ([2]; listed as Tapentadol): not affected
- Effect of co-administration with L-Dopa on locomotor recovery ([2]; listed as tapentadol hydrochloride): the same or improved
- Induction of abnormal involuntary movements (6-OHDA mouse model [3]; L-Dopa treated groups vs tapentadol hydrochloride alone): did not; also recorded: does not induce AIMs
- Effect on L-Dopa induced AIMs / dyskinesia (6-OHDA mouse model [3]; concomitant administration with L-Dopa, hydrochloride): not reverted; also recorded: did not revert L-Dopa induced AIMs; also recorded: did not increase dyskinesia
- Gait test: all parameters measured (6-OHDA mouse model [4]; 21 dpi, L-Dopa ON period): no significant improvement
- Gait test: permanence time before the door, latency to cross the door, mean velocity before the door (6-OHDA mouse model [4]; 29 dpi, L-Dopa OFF period): behavioral recovery
- Gait test: maximum velocity, mean velocity, percentage of time resting or moving fast (6-OHDA mouse model [4]; 29 dpi, L-Dopa OFF period, listed as Tapentadol hydrochloride): behavioral recovery
- Gait test: maximum velocity, mean velocity, percentage of time resting or moving fast (6-OHDA mouse model [4]; 29 dpi, L-Dopa OFF period, listed as tapentadol hydrochloride): ameliorated
- LD50 (mouse; intravenous administration, mice): 47 mg/kg
- LD50 (mouse; oral administration, mouse): 300 mg/kg
- LD50 (mouse; oral, mice): 300 to 350 mg/kg
- Dose with suspected proconvulsion effect [5]: 6 mg/kg
- Induction of CYP isoenzymes [6]: no significant induction
- LD50 ([7]; 6-OHDA disease-induced zebrafish larvae): 8079 | M
- LD50 ([7]; 6-OHDA zebrafish larvae): 8,079 μM
